Results: US11447486B2, “2-amino-benzimidazole derivatives and their use as 5-lipoxygenase and/or prostaglandin E synthase inhibitors” (INSTITUT PASTEUR KOREA, priority 2014, dated 2022)
pEC50, pIC50: −log10 of the molar value.

Legend:
human 5-LOX = target: T1, human 5-LOX (Homo sapiens, UniProt P09917); test: 5-LOX enzyme activity, fluorescence method (5-HPETE, H2DCFDA); assay type: biochemical; details: read-out: 5-LO (IC50)
T1 construct: purchased Cayman 60402; host or cells: insect cells (lysate)
T1 sequence (P09917 1-674): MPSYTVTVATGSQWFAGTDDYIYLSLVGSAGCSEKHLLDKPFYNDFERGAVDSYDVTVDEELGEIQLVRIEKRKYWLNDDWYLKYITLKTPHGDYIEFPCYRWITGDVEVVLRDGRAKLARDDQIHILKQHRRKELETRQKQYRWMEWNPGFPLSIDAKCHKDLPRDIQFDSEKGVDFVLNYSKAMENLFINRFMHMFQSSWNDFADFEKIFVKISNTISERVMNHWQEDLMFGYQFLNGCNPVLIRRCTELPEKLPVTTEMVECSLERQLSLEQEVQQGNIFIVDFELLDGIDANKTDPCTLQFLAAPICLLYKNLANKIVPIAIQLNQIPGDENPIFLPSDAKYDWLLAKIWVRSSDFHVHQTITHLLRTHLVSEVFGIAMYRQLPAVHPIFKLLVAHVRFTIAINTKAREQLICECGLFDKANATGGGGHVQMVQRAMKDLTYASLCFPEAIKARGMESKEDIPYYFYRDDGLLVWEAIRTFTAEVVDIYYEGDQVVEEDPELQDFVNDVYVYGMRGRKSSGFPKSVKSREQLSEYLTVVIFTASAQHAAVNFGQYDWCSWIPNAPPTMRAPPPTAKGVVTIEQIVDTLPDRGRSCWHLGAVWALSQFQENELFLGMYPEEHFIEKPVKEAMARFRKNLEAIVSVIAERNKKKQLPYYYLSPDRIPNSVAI
Procedure, shortened: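 Compound (0.5 nM to 10 uM) pre-incubated 5 min with enzyme; reaction started with ATP (100 uM final) and arachidonic acid (3 uM final). All steps at room temperature, fluorescence read-out.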

[1] = test system: Rat basophilic leukemia (RBL) cells; test: LTB4 secretion assay in RBL (rat basophilic leukemia cells); assay type: cell-based; details: Rattus norvegicus, RBL
Procedure, shortened: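 Cells seeded 2×10^4/well the day before, then pre-incubated 15 min at 37 °C in EMEM/0.5% FBS with compound (5 nM to 100 uM). Stimulation with 2.5 uM arachidonic acid plus 5 uM A23187 (final) for 10 min at 37 °C; LTB4 in supernatant quantified by EIA.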

Rat whole blood (RWB) = test: LTB4 secretion assay in RWB (rat whole blood); assay type: cell-based; details: Rattus norvegicus
Procedure, shortened: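 Heparinized blood from male Sprague Dawley rats (6-9 weeks) diluted 1:1 in RPMI, pre-incubated 15 min at 37 °C with compound (2.5 nM to 50 uM). Stimulated with 10 uM calcium ionophore A23187 for 10 min at 37 °C, stopped with ice-cold PBS; LTB4 in supernatant quantified by EIA.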

| SMILES | pIC50 (human 5-LOX) | pEC50 [1] | melting point [°C] | pEC50 (Rat whole blood (RWB)) |
| --- | --- | --- | --- | --- |
| Nc1ccc2[nH]c(NCc3ccc(N4CCC(c5ccc(Cl)cc5)CC4)cc3)nc2c1 [Compound 115] | > 6.00 | < 4.70 | > 220 |  |
| Cc1cnn(-c2nc3cc(N4CCN(c5ccc(F)cc5)CC4)ccc3[nH]2)c1 [Compound 25] | < 5.00 |  | > 220 |  |
| Nc1ccc2[nH]c(NCc3cccc(Oc4ccc(Cl)cc4)c3)nc2c1 [Compound 101] | > 6.00 | > 5.00 |  | > 5.00 |
| Nc1ccc2[nH]c(N3CCC(Oc4ccc(Cl)cn4)C3)nc2c1 (centres unmarked) [Compound 160] | > 6.00 | > 5.00 |  | < 4.70 |
| Cn1c(NCc2ccc(Oc3ccc(Cl)cn3)cc2F)nc2ccc(NC3COC3)cc21 [Compound 273] | > 6.00 | > 5.00 |  | 4.70 to 5.00 |
| Nc1ccc2[nH]c(NCc3ccc(OC(F)(F)F)cc3)nc2c1 [Compound 79] | > 6.00 | > 5.00 |  | > 5.00 |
| Nc1ccc2nc(NCCO)n(Cc3ccc(Oc4ccc(Cl)cc4)cc3)c2c1 [Compound 155] | > 6.00 | > 5.00 |  | > 5.00 |
| Cc1cc(Oc2ccc(Cl)cn2)ccc1CNc1nc2ccc(NC3COC3)cc2n1C [Compound 291] | > 6.00 | > 5.00 |  | 4.70 to 5.00 |
| CN(C)c1nc2cc(NCc3ccc(-c4ccnn4C)cc3)ccc2[nH]1 [Compound 196] | > 6.00 | > 5.00 |  | 4.70 to 5.00 |
| Clc1ccc(Oc2ccc(CNc3nc4cc(Nc5cn[nH]c5)ccc4[nH]3)cc2)cc1 [Compound 24] | > 6.00 | > 5.00 |  | > 5.00 |
| Nc1nc2ccc(NC3COC3)cc2n1Cc1ccc(Oc2ccc(Cl)cn2)cc1 [Compound 234] | > 6.00 | > 5.00 |  | > 5.00 |
| CN(C)c1nc2ccc(N3CCC(C(=O)c4ccc(OC(F)(F)F)cc4)C3)cc2[nH]1 (centres unmarked) [Compound 190] | > 6.00 | > 5.00 |  | < 4.70 |
| Clc1ccc(Oc2ccc(CNc3nc4cc(NC5COC5)ccc4[nH]3)cc2)nc1 [Compound 166] | > 6.00 | > 5.00 |  | > 5.00 |
| Nc1ccc2[nH]c(NCc3ccc(-c4ccc(Cl)cn4)cc3)nc2c1 [Compound 164] | > 6.00 | > 5.00 |  | < 4.70 |
| CC(C)(O)CNc1nc2ccc(N)cc2n1Cc1ccc(Oc2ccc(Cl)cc2)cc1 [Compound 165] | > 6.00 | > 5.00 |  | > 5.00 |
| Nc1ccc2nc(N)n(Cc3ccc(Oc4ccc(Cl)nc4)cc3)c2c1 [Compound 238] | > 6.00 | > 5.00 |  | > 5.00 |
| CN(C)c1nc2cc(NCc3ccc(Oc4ccc(OC(F)(F)F)cc4)cc3)ccc2[nH]1 [Compound 126] | > 6.00 | > 5.00 |  | < 4.70 |
| Nc1ccc2nc(N)n(Cc3ccc(COc4ccc(Cl)cn4)cc3)c2c1 [Compound 249] | > 6.00 | > 5.00 |  | > 5.00 |
| CC(C)(Nc1ccc2[nH]c(NCc3ccc(Oc4ccc(Cl)cn4)cc3)nc2c1)C(N)=O [Compound 177] | > 6.00 | > 5.00 |  | > 5.00 |
| Nc1ccc2[nH]c(NCc3ccc(S(=O)(=O)c4ccc(Cl)cc4)cc3)nc2c1 [Compound 129] | > 6.00 | > 5.00 |  | < 4.70 |
| Nc1ccc2nc(N)n(Cc3ccc(Oc4ccc(Cl)cc4)cn3)c2c1 [Compound 239] | > 6.00 | > 5.00 |  | > 5.00 |
| Nc1ccc2[nH]c(N3CCCC3c3ccc(Oc4ccc(Cl)cc4)cc3)nc2c1 (centres unmarked) [Compound 145] | > 6.00 | > 5.00 |  | > 5.00 |
| CC(Nc1nc2ccc(NC3COC3)cc2n1C)c1ccc(Oc2ccc(Cl)cn2)cc1 (centres unmarked) [Compound 256] | > 6.00 | 4.70 to 5.00 |  | > 5.00 |

Next, values leading:

| pIC50 (human 5-LOX) | pEC50 [1] | melting point [°C] | pEC50 (Rat whole blood (RWB)) | SMILES |
| --- | --- | --- | --- | --- |
| > 6.00 | > 5.00 | 102.3 to 107.3 |  | Cn1c(NCc2ccc(Oc3ccc4c(Cl)cccc4n3)cc2)nc2ccc(NC3COC3)cc21 [Compound 425] |
| > 6.00 | > 5.00 | 121.4 to 124.6 |  | Cn1c(NCc2ccc(Oc3ccc(F)cn3)cc2)nc2ccc(N)cc21 [Compound 301] |
| > 6.00 | > 5.00 |  | > 5.00 | Cn1c(NCc2c(F)cc(Oc3ncc(Cl)cn3)cc2F)nc2ccc(N)cc21 [Compound 430] |
| > 6.00 | > 5.00 |  | > 5.00 | CCC(Nc1nc2ccc(Nc3cc(C)[nH]n3)cc2n1C)c1ccc(Oc2ncc(Cl)cn2)cc1 (centres unmarked) [Compound 477] |
| < 5.00 | > 5.00 |  | 4.70 to 5.00 | Cn1nc(Nc2cc(F)c3nc(NCc4ccc(Oc5ncc(Cl)cn5)cc4)n(C)c3c2)cc1C(F)(F)F [Compound 524] |
| < 5.00 | > 5.00 |  | > 5.00 | Cn1nc(Nc2ccc3nc(NCc4ccc(Oc5ncc(C(F)(F)F)cn5)cc4)n(C)c3c2)cc1C(F)(F)F [Compound 519] |
| > 6.00 | > 5.00 |  | > 5.00 | Cc1cc(Nc2ccc3nc(NCc4ccc(Oc5ncc(Cl)cn5)cc4)n(C)c3c2)n[nH]1 [Compound 415] |
| > 6.00 | 4.70 to 5.00 |  | 4.70 to 5.00 | Cn1c(NCc2ccc(Oc3ccncn3)cc2)nc2ccc(NC3COC3)cc21 [Compound 371] |
| 5.00 to 6.00 | > 5.00 |  | > 5.00 | CCn1c(NCc2ccc(Oc3ncc(OC(F)(F)F)cn3)cc2)nc2ccc(Nc3cc(C(F)(F)F)n(C)n3)cc21 [Compound 545] |
| > 6.00 | > 5.00 |  | > 5.00 | CCn1c(NCc2ccc(Oc3ccc(Cl)cn3)cc2)nc2ccc(NC3COC3)cc21 [Compound 270] |
| > 6.00 | 4.70 to 5.00 |  | < 4.70 | Cn1c(NCc2ccc(OCc3ccc(Cl)cn3)cc2)nc2ccc(NC3COC3)cc21 [Compound 315] |
| > 6.00 | > 5.00 |  | > 5.00 | CCC(Nc1nc2ccc(NC3COC3)cc2n1C)c1ccc(Oc2ncc(C(F)(F)F)cn2)cc1 (centres unmarked) [Compound 547] |
| > 6.00 | > 5.00 |  | > 5.00 | Cn1nc(Nc2ccc3nc(NCc4ccc(Oc5ncc(Cl)cn5)cc4)n(C)c3c2)cc1CF [Compound 538] |
| > 6.00 | > 5.00 |  | > 5.00 | CCn1c(NCc2ccc(Oc3ncc(C(F)(F)F)cn3)cc2F)nc2ccc(Nc3cc(C)[nH]n3)cc21 [Compound 540] |
| > 6.00 | < 4.70 |  | < 4.70 | Nc1ccc2nc(NCc3ccc(Oc4ncccn4)cc3)[nH]c2c1 [Compound 154] |
| 5.00 to 6.00 | > 5.00 |  | > 5.00 | CCn1c(NCc2ccc(Oc3ncc(C(F)(F)F)cn3)cc2)nc2ccc(Nc3n[nH]c(C)c3Cl)cc21 [Compound 508] |
| > 6.00 | > 5.00 |  | 4.70 to 5.00 | Cn1c(NCc2ccc(Oc3ccc(Cl)cn3)cn2)nc2ccc(NC3COC3)cc21 [Compound 300] |
| > 6.00 | > 5.00 |  | < 4.70 | Cn1c(NCc2ccc(COc3ccc(Cl)cn3)cc2)nc2ccc(NC3COC3)cc21 [Compound 305] |
| > 6.00 | > 5.00 |  | > 5.00 | Cn1c(NCc2ccc(Oc3ncc(Cl)cn3)cc2)nc2ccc(NC3COC3)cc21 [Compound 289] |
| > 6.00 | > 5.00 |  | > 5.00 | Cc1cc(Nc2ccc3nc(NCc4ccc(Oc5nccc(Cl)n5)cc4)n(C)c3c2)n[nH]1 [Compound 489] |
| > 6.00 | > 5.00 |  | > 5.00 | CCn1c(NCc2ccc(Oc3ncc(Cl)cn3)cc2)nc2ccc(Nc3cc(C(C)(C)C)[nH]n3)cc21 [Compound 509] |
| > 6.00 | 4.70 to 5.00 |  | 4.70 to 5.00 | CCn1c(NCc2ccc(Oc3ncc(Cl)cn3)cc2)nc2c(F)cc(NC3COC3)cc21 [Compound 555] |
| > 6.00 | 4.70 to 5.00 |  | > 5.00 | Cn1c(NCc2ccc(Oc3ncc(F)cn3)cc2)nc2ccc(N)cc21 [Compound 336] |
| > 6.00 | > 5.00 |  | > 5.00 | Cn1c(NCc2ccc(Oc3ccc(Cl)nc3)cc2)nc2ccc(NC3COC3)cc21 [Compound 281] |
| > 6.00 | 4.70 to 5.00 |  | > 5.00 | Cn1c(NCc2ccc(Oc3ccc(C#N)cn3)cc2)nc2ccc(NC3COC3)cc21 [Compound 351] |
